Earlier results on four molecules are cited in patent publication US20090233914A1, “Composition for treatment of nail infections” (Ondine International, Ltd., priority 2008, published 2009).

Molecules are shown by their SMILES.

The subject of the series is onychomycosis. The settings on record: for side effects: human, in vivo, po.

Turning to `CN(C/C=C/C#CC(C)(C)C)Cc1cccc2ccccc12` [Lamisil, terbinafine], for the setting “oral, once a day for 90 days”, the “nail clearing in patients for one year” value is on record as 70-80 % of patients.

Regarding `OC(Cn1cncn1)(Cn1cncn1)c1ccc(F)cc1F` [Fluconazole], the side effects entry is “severe side effects”.

Consider `CCC(C)n1ncn(-c2ccc(N3CCN(c4ccc(OCC5COC(Cn6cncn6)(c6ccc(Cl)cc6Cl)O5)cc4)CC3)cc2)c1=O` (centres unmarked) [itraconazole], for which the side effects entry is listed as “somewhat severe”.

In the case of `COC1=CC(=O)C[C@@H](C)[C@]12Oc1c(Cl)c(OC)cc(OC)c1C2=O` [Griseofulvin], the side effects entry was “undesired side effects”. Also, for the setting “oral medicine”, the “effectiveness of treatment of onychomycosis” value was “largely ineffectual”.
